Where “and” joins values, the source holds several entries; their conditions need not be identical. Identical values can stand only once. Like-named read-outs stand apart in the source and are kept apart here.
What was measured:
[1] = Biodistribution in male Balb/C mice; format: in vivo; conditions: for brain uptake and washout (assessment in words): 5 to 60 min post injection; for Biodistribution: Blood / Biodistribution: Brain / Biodistribution: Fat / Biodistribution: Heart / Biodistribution: Kidney / Biodistribution: Liver / Biodistribution: Lung / Biodistribution: Muscle / Biodistribution: Pancreas / Biodistribution: Spleen / Biodistribution: Bone: tail vein, mean ± SD, n = 4
Procedure: For the biodistribution studies, 100˜130 μCi of [^11C] TZ-20-35 in ˜100 μL of 10% ethanol/saline solution (v/v) was injected via the tail vein into mature male Balb/C mice (19-24 g) under anesthesia (2.5% isoflurane in oxygen at a flow rate of 1 mL/min). A group of at least four […] were used for each time point. […] The whole brain was quickly harvested. At the same time, samples of blood, heart, lung, liver, spleen, pancreas, kidney, muscle, fat, and tail were dissected. All the tissue samples were collected in tared tubes and counted in an automated gamma counter (Beckman Gamma 8000 well counter) with standards, prepared by diluting the injectate. The counted tissues were then weighed, and the % ID/g was calculated (Table 4).

α-synuclein fibrils = target: T1, α-synuclein fibrils (Homo sapiens, UniProt P37840); test: ThT competitive assay for α-synuclein fibrils (Table 1); format: binding; conditions: for EC50: α-synuclein fibrils
T1 construct: made in house; host or cells: E. coli BL21(DE3)RIL
Procedure: Upon binding to amyloid fibrils, a peak at approximately 440 nm becomes dominant with the fluorescent emission maximum shifted to 480 nm. This is accompanied by a strong enhancement of the fluorescence.
α-Synuclein recombinant protein was produced in E. coli. […] Freshly transformed BL21 colonies were inoculated into 2 L baffled flasks containing 250 mL sterilized TB (1.2% bactotryptone, 2.4% yeast extract, 0.4% glycerol, 0.17 M KH2PO4, 0.72 M K2HPO4) with 50 μg/ml ampicillin, and incubated overnight at 37° C. with shaking.
To determine the concentration of fibrils, the reaction mixture (100 μL) was centrifuged at 18,000×g for 10 minutes to separate fibrils from monomer. The α-synuclein monomer and other soluble proteins in the supernatant were removed, and the fibril pellet was resuspended in 100 μL solution of Tris-HCl (20 mM) and NaCl (100 mM). This fibril suspension was used in a bicinchoninic acid (BCA) protein assay along with a bovine serum albumin (BSA) standard curve to determine the concentration of fibrils in the 72 hour fibril reaction mixture.
To prepare the fibrils for performing binding assays, the fibril reaction mixture prepared above was centrifuged at 18,000×g for 10 minutes.
Once the ThT-α-synuclein saturation binding curve and dissociation constant (Kd) were determined the competitive assay for determining the binding affinity of various test compounds was conducted. […] The mixture was incubated at room temperature for 60 minutes on the shaking plate. The fluorescent intensity for each cell was measured by the fluorescence reader at λex and λem. The Ki value for each compound was calculated by the corresponding inhibition curve.
The Ki values were derived from the EC50 values using the Cheng-Prusoff equation: Ki=EC50/(1+[radioligand]/Kd). See FIGS. 17.1-31.2 for the inhibition curves for each compound in the ThioT competitive binding assay.

[2] = average, read-out: Ki (nM) α-syn (avg)
[3] = individual determinations, read-out: Ki (nM) α-syn

## COC(=O)c1ccc(/C=C/c2ccncc2)cc1 [[^11C]TZ-20-35]
[1]
  brain uptake and washout (assessment in words): Brain uptake and the washout kinetics were very good
[1]; 5 min post injection
  Biodistribution: Blood: 5.21 ± 0.20 % ID/g
  Biodistribution: Brain: 5.71 % ID/g and 5.71 ± 0.44 % ID/g
  Biodistribution: Fat: 0.90 ± 0.42 % ID/g
  Biodistribution: Heart: 4.72 ± 0.34 % ID/g
  Biodistribution: Kidney: 4.73 ± 0.41 % ID/g
  Biodistribution: Liver: 4.25 ± 0.36 % ID/g
  Biodistribution: Lung: 4.78 ± 0.21 % ID/g
  Biodistribution: Muscle: 4.06 ± 0.13 % ID/g
  Biodistribution: Pancreas: 3.64 ± 0.44 % ID/g
  Biodistribution: Spleen: 4.60 ± 0.16 % ID/g
[1]; 30 min post injection
  organ recovery: 52%
  Biodistribution: Blood: 2.79 ± 0.43 % ID/g
  Biodistribution: Brain: 2.43 % ID/g and 2.43 ± 0.41 % ID/g
  Biodistribution: Fat: 0.86 ± 0.07 % ID/g
  Biodistribution: Heart: 2.61 ± 0.54 % ID/g
  Biodistribution: Kidney: 4.43 ± 0.42 % ID/g
  Biodistribution: Liver: 8.72 ± 0.37 % ID/g
  Biodistribution: Lung: 2.94 ± 0.38 % ID/g
  Biodistribution: Muscle: 2.25 ± 0.33 % ID/g
  Biodistribution: Pancreas: 3.54 ± 0.90 % ID/g
  Biodistribution: Spleen: 3.44 ± 0.23 % ID/g
[1]; 60 min post injection
  organ recovery: 34%
  Biodistribution: Blood: 1.75 ± 0.25 % ID/g
  Biodistribution: Brain: 1.68 % ID/g and 1.68 ± 0.26 % ID/g
  Biodistribution: Fat: 0.58 ± 0.09 % ID/g
  Biodistribution: Heart: 1.80 ± 0.18 % ID/g
  Biodistribution: Kidney: 4.23 ± 0.47 % ID/g
  Biodistribution: Liver: 10.17 ± 1.08 % ID/g
  Biodistribution: Lung: 2.21 ± 0.44 % ID/g
  Biodistribution: Muscle: 1.18 ± 0.10 % ID/g
  Biodistribution: Pancreas: 5.42 ± 1.25 % ID/g
  Biodistribution: Spleen: 3.30 ± 0.36 % ID/g

## O=C(Nc1ccc(OCCC[18F])cc1)c1ccc(/C=C/c2ccncc2)cc1 [[^18F]TZ-23-92]
[1]; 5 min post injection
  Biodistribution: Blood: 2.40 ± 0.39 % ID/g
  Biodistribution: Bone: 3.31 % ID/g and 3.31 ± 0.74 % ID/g
  Biodistribution: Brain: 1.51 % ID/g and 1.52 ± 0.18 % ID/g
  Biodistribution: Fat: 1.79 ± 0.55 % ID/g
  Biodistribution: Heart: 2.93 ± 0.34 % ID/g
  Biodistribution: Kidney: 11.17 ± 0.41 % ID/g
  Biodistribution: Liver: 52.44 ± 3.84 % ID/g
  Biodistribution: Lung: 7.70 ± 0.85 % ID/g
  Biodistribution: Muscle: 1.47 ± 0.16 % ID/g
  Biodistribution: Pancreas: 2.03 ± 0.19 % ID/g
  Biodistribution: Spleen: 23.73 ± 4.54 % ID/g
[1]; 30 min post injection
  Biodistribution: Blood: 2.42 ± 0.19 % ID/g
  Biodistribution: Bone: 39.47 % ID/g and 39.48 ± 10.28 % ID/g
  Biodistribution: Brain: 1.55 % ID/g and 1.56 ± 0.08 % ID/g
  Biodistribution: Fat: 1.34 ± 0.30 % ID/g
  Biodistribution: Heart: 2.19 ± 0.19 % ID/g
  Biodistribution: Kidney: 9.10 ± 0.34 % ID/g
  Biodistribution: Liver: 14.47 ± 1.13 % ID/g
  Biodistribution: Lung: 2.30 ± 0.25 % ID/g
  Biodistribution: Muscle: 1.30 ± 0.16 % ID/g
  Biodistribution: Pancreas: 1.87 ± 0.23 % ID/g
  Biodistribution: Spleen: 1.69 ± 0.15 % ID/g
[1]; 60 min post injection
  Biodistribution: Blood: 0.84 ± 0.05 % ID/g
  Biodistribution: Bone: 68.78 % ID/g and 68.78 ± 6.75 % ID/g
  Biodistribution: Brain: 1.46 % ID/g and 1.46 ± 0.16 % ID/g
  Biodistribution: Fat: 0.58 ± 0.13 % ID/g
  Biodistribution: Heart: 0.90 ± 0.07 % ID/g
  Biodistribution: Kidney: 3.87 ± 0.36 % ID/g
  Biodistribution: Liver: 7.00 ± 0.33 % ID/g
  Biodistribution: Lung: 0.83 ± 0.05 % ID/g
  Biodistribution: Muscle: 0.55 ± 0.06 % ID/g
  Biodistribution: Pancreas: 0.98 ± 0.08 % ID/g
  Biodistribution: Spleen: 0.61 ± 0.04 % ID/g
[1]; 120 min post injection
  Biodistribution: Blood: 0.32 ± 0.02 % ID/g
  Biodistribution: Bone: 70.20 % ID/g and 70.20 ± 15.04 % ID/g
  Biodistribution: Brain: 1.0 % ID/g and 1.00 ± 0.11 % ID/g
  Biodistribution: Fat: 0.29 ± 0.10 % ID/g
  Biodistribution: Heart: 0.31 ± 0.02 % ID/g
  Biodistribution: Kidney: 1.67 ± 0.23 % ID/g
  Biodistribution: Liver: 3.50 ± 0.48 % ID/g
  Biodistribution: Lung: 0.36 ± 0.03 % ID/g
  Biodistribution: Muscle: 0.33 ± 0.26 % ID/g
  Biodistribution: Pancreas: 0.61 ± 0.13 % ID/g
  Biodistribution: Spleen: 0.24 ± 0.01 % ID/g
[1]; judged from brain uptake at 5 min
  crossing of the blood brain barrier: can cross BBB and enter the brain

## COc1ccc(NC(=O)c2ccc(/C=C/c3ccncc3)cc2)cc1 [[^11C]TZ-20-83]
[1]
  brain uptake and washout (assessment in words): brain uptake and washout aren't significant
[1]; 5 min post injection
  Biodistribution: Blood: 1.93 ± 0.15 % ID/g
  Biodistribution: Brain: 1.93 % ID/g and 1.93 ± 0.29 % ID/g
  Biodistribution: Fat: 1.94 ± 0.20 % ID/g
  Biodistribution: Heart: 2.31 ± 0.37 % ID/g
  Biodistribution: Kidney: 17.55 ± 2.61 % ID/g
  Biodistribution: Liver: 37.98 ± 3.78 % ID/g
  Biodistribution: Lung: 11.22 ± 0.59 % ID/g
  Biodistribution: Muscle: 1.18 ± 0.24 % ID/g
  Biodistribution: Pancreas: 3.09 ± 0.39 % ID/g
  Biodistribution: Spleen: 18.77 ± 3.38 % ID/g
[1]; 30 min post injection
  organ recovery: 58%
  Biodistribution: Blood: 1.59 ± 0.42 % ID/g
  Biodistribution: Brain: 1.63 % ID/g and 1.63 ± 0.33 % ID/g
  Biodistribution: Fat: 1.73 ± 0.36 % ID/g
  Biodistribution: Heart: 1.79 ± 0.35 % ID/g
  Biodistribution: Kidney: 9.98 ± 1.76 % ID/g
  Biodistribution: Liver: 17.94 ± 3.86 % ID/g
  Biodistribution: Lung: 4.10 ± 0.96 % ID/g
  Biodistribution: Muscle: 1.17 ± 0.23 % ID/g
  Biodistribution: Pancreas: 5.10 ± 1.09 % ID/g
  Biodistribution: Spleen: 3.49 ± 0.84 % ID/g
[1]; 60 min post injection
  organ recovery: 38%
  Biodistribution: Blood: 1.56 ± 0.12 % ID/g
  Biodistribution: Brain: 1.25 % ID/g and 1.25 ± 0.11 % ID/g
  Biodistribution: Fat: 1.05 ± 0.22 % ID/g
  Biodistribution: Heart: 1.48 ± 0.05 % ID/g
  Biodistribution: Kidney: 5.82 ± 0.47 % ID/g
  Biodistribution: Liver: 13.36 ± 1.75 % ID/g
  Biodistribution: Lung: 2.93 ± 0.22 % ID/g
  Biodistribution: Muscle: 0.92 ± 0.14 % ID/g
  Biodistribution: Pancreas: 6.96 ± 0.51 % ID/g
  Biodistribution: Spleen: 3.21 ± 0.76 % ID/g

## C(=C\c1ccccc1)/CN1c2ccccc2Sc2ccccc21 [TZ-19-126]
α-synuclein fibrils; [2]
  Ki: 3880 nM
α-synuclein fibrils; [3]
  Ki: 3880 nM

## COC(=O)c1ccc(/C=C/c2ccncc2)cc1 [TZ-20-35]
α-synuclein fibrils; [2]
  Ki: 16.1 nM
α-synuclein fibrils; [3]
  Ki: 16.1 nM

## COc1ccc(/C=C/c2ccc(CO)s2)cc1 [TZ-34-46]
α-synuclein fibrils; [2]
  Ki: 108 nM
α-synuclein fibrils; [3]
  Ki: 105 nM and 110 nM
α-synuclein fibrils; average, read-out: EC50 (nM) EC50 (avg)
  EC50: 281 nM
α-synuclein fibrils; individual determinations, read-out: EC50 (nM) EC50
  EC50: 275 nM and 287 nM

## COc1ccc(C(=O)N2CCN(C(=O)c3ccc(/C=C/c4ccncc4)cc3)CC2)cc1 [TZ-20-45]
α-synuclein fibrils; [2]
  Ki: 181 nM
α-synuclein fibrils; [3]
  Ki: 181 nM

## COc1ccc(/C=C/c2ccc(-c3nccs3)s2)cc1 [TZ-37-96]
α-synuclein fibrils; [2]
  Ki: 98.5 nM
α-synuclein fibrils; [3]
  Ki: 102 nM and 95 nM

## COc1ccc(/C=C/c2cccnn2)cc1 [TZ-22-23-1]
α-synuclein fibrils; [2]
  Ki: 1140 nM
α-synuclein fibrils; [3]
  Ki: 1140 nM

## COC(=O)c1ccc(/C=C/C=C/c2ccncc2)cc1 [TZ-20-111]
α-synuclein fibrils; [3]
  Ki: 56 nM
